Measurements from publication PMC10386454 (Pharmaceutics, 2023).

Tests used:
[1] = target: T1, human MT1 (Homo sapiens, UniProt P48039); test: β-arrestin2 recruitment assay (PathHunter), MT1; assay type: cell-based; design: host or cells: HEK 293 PathHunter parental cells, transient transfection of the receptor; conditions: single saturating concentration
Target sequence in this assay (P48039 whole entry, the tested form may be a part): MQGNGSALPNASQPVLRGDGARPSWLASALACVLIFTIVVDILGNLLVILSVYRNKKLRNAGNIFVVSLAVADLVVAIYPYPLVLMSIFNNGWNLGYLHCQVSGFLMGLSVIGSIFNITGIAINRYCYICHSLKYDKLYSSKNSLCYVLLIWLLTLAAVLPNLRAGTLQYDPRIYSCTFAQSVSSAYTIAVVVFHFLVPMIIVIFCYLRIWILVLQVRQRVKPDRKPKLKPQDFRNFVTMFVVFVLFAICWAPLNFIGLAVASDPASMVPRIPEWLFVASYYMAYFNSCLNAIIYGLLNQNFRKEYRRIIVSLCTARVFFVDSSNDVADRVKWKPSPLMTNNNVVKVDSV
Target sequence in this assay (P32121 whole entry partner, the tested form may be a part): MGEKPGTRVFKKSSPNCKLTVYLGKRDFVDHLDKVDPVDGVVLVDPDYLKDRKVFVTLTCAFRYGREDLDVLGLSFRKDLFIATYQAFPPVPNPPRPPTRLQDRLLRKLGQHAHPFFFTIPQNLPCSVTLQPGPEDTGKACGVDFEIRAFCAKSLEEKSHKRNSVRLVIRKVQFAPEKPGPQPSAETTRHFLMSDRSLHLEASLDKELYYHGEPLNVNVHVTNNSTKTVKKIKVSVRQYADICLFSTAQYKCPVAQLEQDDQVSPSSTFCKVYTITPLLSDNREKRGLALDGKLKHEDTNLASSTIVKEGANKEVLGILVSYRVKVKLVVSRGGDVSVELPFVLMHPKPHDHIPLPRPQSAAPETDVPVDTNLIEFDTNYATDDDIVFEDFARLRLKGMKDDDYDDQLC

[2] = system: HEK293 empty vector transfected cells (mock); test: β-arrestin2 recruitment assay (PathHunter), control cells with β-gal donor not fused to melatonin receptors; assay type: cell-based, human; conditions: extracts […], Ex18 0.005 mg/mL, MLT 1 µM
[3] = system: HEK293 empty vector transfected cells (mock); test: Forskolin-stimulated cAMP production in mock-transfected HEK293 cells; assay type: cell-based, human; conditions: extracts […] (Ex18 0.005 mg/mL), melatonin 1 µM
[4] = target: T1, human MT1; test: Inhibition of forskolin-stimulated cAMP production, HEK293 cells expressing MT1; assay type: cell-based; design: expressed in transfected cells; conditions: single concentration: extracts […] (Ex18 0.005 mg/mL), melatonin 1 µM; normalized to mock cell responses
Target sequence in this assay (P48039 whole entry, the tested form may be a part): as the sequence (P48039 whole entry, the tested form may be a part) above

[5] = system: HEK293 empty vector transfected cells (mock); test: ERK1/2 activation assay in mock HEK293 cells; assay type: cell-based, human; conditions: MLT 1 µM
[6] = target: T2, human MT2 receptor (Homo sapiens, UniProt P49286); test: 2-[125I]iodomelatonin competitive binding assay, MT2
T2 construct: expressed in transfected cells
T2 sequence (P49286 1-362): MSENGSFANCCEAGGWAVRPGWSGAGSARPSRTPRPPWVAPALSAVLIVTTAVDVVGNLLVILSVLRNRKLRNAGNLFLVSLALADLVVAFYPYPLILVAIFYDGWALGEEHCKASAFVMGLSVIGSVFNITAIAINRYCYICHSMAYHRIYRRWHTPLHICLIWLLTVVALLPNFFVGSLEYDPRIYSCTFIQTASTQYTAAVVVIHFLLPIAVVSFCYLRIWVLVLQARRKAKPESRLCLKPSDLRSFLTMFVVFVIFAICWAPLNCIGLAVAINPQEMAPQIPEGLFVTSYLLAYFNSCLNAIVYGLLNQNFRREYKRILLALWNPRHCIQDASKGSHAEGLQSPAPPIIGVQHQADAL

[7] = target: T1, human MT1; test: 2-[125I]iodomelatonin competitive binding assay, MT1; design: expressed in transfected cells
Target sequence in this assay (P48039 whole entry, the tested form may be a part): as the sequence (P48039 whole entry, the tested form may be a part) above

Row | Compound | β-arrestin2 recruitment, MT1-β-gal donor fusion protein [1] | β-arrestin2 recruitment in control cells (β-gal donor alone) [2] | effect on forskolin (FSK)-stimulated cAMP levels in mock cells [3] | effect on FSK-stimulated cAMP production, cells expressing MT1 [4] | effect on ERK1/2 pathway in mock cells, in words [5] | 2-[125I]-MLT binding to MT2, result in words [6] | 2-[125I]-MLT binding to MT1, result in words [7]
1 | COc1ccc2[nH]cc(CCNC(C)=O)c2c1 [Melatonin, N-acety-5-methoxyltryptamine] | induced β-arrestin2 recruitment | Neither melatonin nor any extract induced β-arrestin2 recruitment | did not show any effect | decreased FSK-stimulated cAMP production | without effect | – | –
2 | maltodextrin | – | – | – | – | – | no impact | no impact
